Laboratory results published in patent publication US11471451B2, “Uses of crenolanib” (Arog Pharmaceuticals, Inc., priority 2019, dated 2022).

Legend:
Format in all cases: in vivo, human
[1] = tested on: FLT3-wildtype relapsed/refractory AML; assay: Example 2: FLT3-wildtype relapsed/refractory AML patient; crenolanib besylate with salvage chemotherapy
Description: A person was diagnosed with AML in 2016. […] Initially, the patient was treated with a standard cytarabine/anthracycline based chemotherapy regimen. […] To treat this patient's disease and overcome the rise in FLT3 ligand that has been documented to occur after successive rounds of chemotherapy, even in FLT3-wildtype patients, this patient was provided oral crenolanib besylate in combination with salvage chemotherapy for relapsed/refractory patients. […] The patient was treated with salvage chemotherapy, comprised of five days of fludarabine, five days of cytarabine, 3 days of idarubicin, and G-CSF, followed by 100 mg of crenolanib besylate three times daily starting on day 7 of treatment.
The study was designed to determine the safety of crenolanib when combined with standard salvage chemotherapy in patients with relapsed/refractory AML, patients only remained on study for 1-2 cycles of induction crenolanib combination therapy.

[2] = tested on: t(9; 11)+AML with FLT3-A848P mutation; assay: Example 8: pediatric relapsed t(9; 11)+AML patient; crenolanib besylate after liposomal chemotherapy and gemtuzumab ozogamicin
[3] = tested on: FLT3 mutated AML; assay: Example 1: newly diagnosed AML patient with activating FLT3 mutations; crenolanib besylate with induction and consolidation chemotherapy, then single agent maintenance; bone marrow biopsy
Description: (§1) A person was diagnosed with AML with monocytic differentiation in 2016. […] To treat this patient's disease and overcome the FLT3 mutations, this patient was provided oral crenolanib besylate in combination with standard chemotherapy on a clinical trial for newly diagnosed AML patients with activating FLT3 mutations. The patient was treated with induction chemotherapy, comprised of seven days of cytarabine and three days of daunorubicin, followed by 100 mg of crenolanib besylate three times daily starting on day 10 of treatment.
In an effort to maintain remission, the patient was then administered four cycles of high dose cytarabine consolidation chemotherapy. In each cycle, the patient received cytarabine chemotherapy at standard doses, followed by oral crenolanib besylate at 100 mg three times daily starting 48 hours after the last dose of chemotherapy and continuing until 72 hours before the start of the next cycle of chemotherapy. […] Due to the aggressive nature of FLT3 mutated AML, the patient continued to receive single agent crenolanib besylate therapy at 100 mg three times daily for 12 months, known as maintenance.

[4] = tested on: relapsed/refractory AML with FLT3-D835 mutation; assay: Example 5: heavily pretreated relapsed/refractory AML patient; single agent crenolanib besylate
Description: A person was diagnosed with AML in 2012. […] Initially, the patient was treated with standard induction chemotherapy and a bone marrow transplant. […] To treat this patient's disease and overcome the FLT3-D835 mutation, this patient was provided oral crenolanib besylate on a clinical trial for relapsed/refractory AML patients with activating FLT3 mutations. […] The patient was treated with single agent crenolanib besylate at a dose of 200 mg/m^2 three times daily.

[5] = tested on: AML with FLT3-ITD mutation; assay: Example 3: newly diagnosed AML patient (FLT3-ITD, NRAS, NPM1); crenolanib besylate with standard chemotherapy
Description: as §1, with “AML” for “AML with monocytic differentiation”, “mutation,” for “mutations,”, “mutations. […]” for “mutations.”
In an effort to maintain remission, the patient was then administered one cycle of high dose cytarabine consolidation chemotherapy, followed by oral crenolanib besylate at 100 mg three times daily starting 48 hours after the last dose of chemotherapy.

Q: Which results are given for CC1(COc2ccc3c(c2)ncn3-c2ccc3cccc(N4CCC(N)CC4)c3n2)COC1 [crenolanib, 4-Piperidinamine, 1-[2-[5-[(3-methyl-3-oxetanyl)methoxy]-1H-benzimidazol-1-yl]-8-quinolinyl]]?
A: patient status ([1]; at last follow up, after a single cycle): remains alive and in remission; mutations in BCOR, NRAS, and U2AF1 ([1]; day 32, bulk DNA sequencing methods): not detected; response ([1]; day 32, crenolanib combination therapy): complete morphological remission; bone marrow blasts ([1]; person, baseline 17%, day 32, fludarabine, cytarabine, idarubicin, G-CSF, then 100 mg crenolanib besylate three times daily from day 7): less than 5%; remission status ([2]; more than 100 days post-transplant, crenolanib until one week prior to allogeneic stem cell transplant): still in remission; response ([2]; one month after starting 66.7 mg/m^2 crenolanib besylate orally, begun five days after VYXEOS and gemtuzumab ozogamicin): complete morphologic remission without count recovery; response ([3]; day 35, after induction chemotherapy with crenolanib): morphologic complete remission; remission status ([3]; day 237, after four cycles of high dose cytarabine consolidation with crenolanib besylate 100 mg three times daily): remained in morphologic remission; remission status ([3]; day 406, completion of single agent crenolanib besylate maintenance, 100 mg three times daily): remained in morphologic remission; bone marrow blasts ([3]; person, 63% at presentation, day 35, cytarabine 7 days + daunorubicin 3 days, then 100 mg crenolanib besylate three times daily from day 10): less than 5%; FLT3-D835 mutation ([4]; day 53, PCR based techniques): not detected; response ([4]; day 53, crenolanib single agent therapy): complete morphologic remission (with incomplete hematological recovery); bone marrow blasts ([4]; person, baseline 90%, day 53, single agent crenolanib besylate 200 mg/m^2 three times daily): less than 5%; FLT3-ITD mutation ([5]; day 24, PCR based test): no longer detected; response ([5]; day 24, crenolanib combination therapy): complete morphologic remission; remission status ([5]; day 98, after one cycle of high dose cytarabine consolidation followed by crenolanib besylate 100 mg three times daily): remained in remission; FLT3-ITD mutation ([5]; day 98, standard PCR tests): remained undetectable; bone marrow blasts ([5]; person, baseline 8%, day 24, cytarabine 7 days + daunorubicin 3 days, then 100 mg crenolanib besylate three times daily from day 10): 5%
